Experimental findings from ChEMBL document CHEMBL1201862, “PubChem BioAssay data set” (2004) are described below.

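Five concentrations, 48 hours, 96-well plates. Abbreviation: GI50, concentration required for 50% inhibition of growth.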 Active and inactive are the calls of the source. No stated cut-off is given here; in the data, active = GI50 up to about 1.1 µM and inactive = higher.

Test systems include UACC-62; MDA-MB-435; SK-OV-3; HCT-116; EKVX; HCT-15; LOX IMVI; SF-539; UACC-257; A549; MDA-MB-231; SNB-75; RXF 393; MCF7; CCRF-CEM; SK-MEL-2; MOLT-4; RPMI-8226; Hs-578T.
Holding throughout (test): growth of human tumour cells (NCI), 48 h

Regarding `O=CC12c3ccccc3C(c3ccccc31)C1C(=O)NC(=O)C12` (configuration not stated), the GI50 in the assay with UACC-62 is > 100 µM (inactive); with MDA-MB-435 it was > 100 µM (inactive); in the assay with SK-OV-3, > 100 µM (inactive); in the assay on HCT-116, 45.9 µM (inactive); with EKVX, > 100 µM (inactive); with HCT-15, greater than 100 µM. The GI50 in the assay on LOX IMVI was 50.1 µM (inactive); in the assay on SF-539, > 100 µM (inactive); in the assay on UACC-257, > 100 µM (inactive); in the assay with A549, > 100 µM (inactive); with MDA-MB-231, > 100 µM (inactive); in the assay with SNB-75, 39 µM (inactive). For the same compound, the GI50 in the assay on RXF 393 was 76.2 µM (inactive); in the assay on MCF7 it was 0.953 µM (active); with CCRF-CEM, 41.7 µM (inactive); in the assay on SK-MEL-2, > 100 µM (inactive); with MOLT-4, 97.3 µM (inactive).
Take `CC1=C2[C@@H](c3ccccc3)C3C=CC2(c2ccccc23)N(C(=O)Nc2cccc3ccccc23)C1=O` (some centres not stated): the GI50 with UACC-62 was > 100 µM (inactive); in the assay with SK-OV-3 it was > 100 µM (inactive); in the assay with HCT-116, > 100 µM (inactive); in the assay with EKVX it was > 100 µM (inactive); in the assay with HCT-15, greater than 100 µM; with LOX IMVI, > 100 µM (inactive). Also, the GI50 in the assay with SF-539, with UACC-257, in the assay with A549, in the assay with RPMI-8226, with CCRF-CEM and with MOLT-4 was > 100 µM (inactive) throughout.
As for `O=C(/C=C/c1cccs1)c1ccsc1`, the GI50 with UACC-62 is 16.5 µM (inactive); in the assay on MDA-MB-435 it was 21.8 µM (inactive); with SK-OV-3 it was 33.4 µM (inactive); in the assay with EKVX, 31.1 µM (inactive); in the assay on HCT-15, 16.8 µM; in the assay on LOX IMVI, 17.2 µM (inactive). Besides, the GI50 was 23 µM (inactive) with UACC-257; 38 µM (inactive) in the assay with A549; 15.9 µM (inactive) with RPMI-8226; > 10 µM (inactive) in the assay on MDA-MB-231; 27.8 µM (inactive) in the assay with SNB-75; 10.4 µM (inactive) in the assay on MCF7. Further, the values for the GI50 in the assay on CCRF-CEM, in the assay on SK-MEL-2 and in the assay on MOLT-4 were 16.5 µM (inactive), 36.2 µM (inactive) and 16.9 µM (inactive), respectively.
Turning to `CC1(C)OCC([C@H]2CC23SCCCS3)O1` (some centres not stated), the GI50 in the assay with UACC-62 was > 100 µM (inactive); in the assay on SK-OV-3, > 100 µM (inactive); in the assay on HCT-116, > 100 µM (inactive); with EKVX, > 100 µM (inactive); with HCT-15, greater than 100 µM; in the assay with SF-539 it was > 100 µM (inactive). In addition, the GI50 in the assay with UACC-257, in the assay with A549, with RPMI-8226, with SNB-75, in the assay on RXF 393 and in the assay with SK-MEL-2 was > 100 µM (inactive) throughout. Besides, the GI50 with MOLT-4 is > 100 µM (inactive).
As to `Nc1ccc2nc3n(c2c1)C(=O)c1ccccc1-3`, the GI50 with UACC-62 is > 100 µM (inactive); in the assay with SK-OV-3, > 100 µM (inactive); with HCT-116 it was > 100 µM (inactive); in the assay with EKVX, > 100 µM (inactive); in the assay on HCT-15, greater than 100 µM; in the assay on SF-539 it was > 100 µM (inactive). Further, the GI50 in the assay on UACC-257, in the assay with A549, in the assay on RPMI-8226, in the assay on SNB-75, with RXF 393 and in the assay on MCF7 was > 100 µM (inactive) throughout. Further, the GI50 with CCRF-CEM, with SK-MEL-2 and in the assay on MOLT-4 was > 100 µM (inactive) throughout.
On to `OCCCCCCCCCCCOc1ccc(C2OCC3(CO2)COC(c2ccc(OCCCCCCCCCCCO)cc2)OC3)cc1` (configuration not stated), for which the GI50 in the assay on UACC-62 is > 50 µM (inactive); in the assay on MDA-MB-435, > 50 µM (inactive); in the assay on SK-OV-3 it was > 50 µM (inactive); in the assay on HCT-116, > 50 µM (inactive); in the assay on EKVX, > 50 µM (inactive); in the assay with HCT-15, greater than 50 µM. Besides, the GI50 in the assay with LOX IMVI, with SF-539, with UACC-257, with Hs-578T, with A549 and in the assay on RPMI-8226 was > 50 µM (inactive) each time. The GI50 in the assay on MDA-MB-231, in the assay with SNB-75, in the assay on MCF7, in the assay on SK-MEL-2 and with MOLT-4 was > 50 µM (inactive) throughout.
On to `NC(=O)CCC(NC(=O)c1c2ccccc2nc2ccccc12)C(=O)O` (configuration not stated), for which the GI50 was > 100 µM (inactive) with UACC-62; > 100 µM (inactive) with MDA-MB-435; > 100 µM (inactive) in the assay on SK-OV-3; > 100 µM (inactive) in the assay with HCT-116; > 100 µM (inactive) with EKVX; greater than 100 µM in the assay on HCT-15. Also, the GI50 with LOX IMVI, in the assay on SF-539, in the assay on UACC-257, in the assay with A549, in the assay with RPMI-8226 and with MDA-MB-231 was > 100 µM (inactive) each time. Further, the GI50 in the assay on SNB-75, with MCF7, in the assay on CCRF-CEM, in the assay on SK-MEL-2 and in the assay on MOLT-4 was > 100 µM (inactive) in each case.
As for `CO[C@@H](C(=O)OC1C=CC2(CC1)C(=O)N(C)c1ccccc12)c1ccccc1` (some centres not stated), the GI50 is > 100 µM (inactive) in the assay on UACC-62; 94.8 µM (inactive) with MDA-MB-435; > 100 µM (inactive) in the assay with SK-OV-3; 52.5 µM (inactive) in the assay with HCT-116; 57 µM (inactive) in the assay on EKVX; greater than 100 µM in the assay with HCT-15. The GI50 in the assay on LOX IMVI was > 100 µM (inactive); in the assay with UACC-257, 65.3 µM (inactive); in the assay with A549 it was > 100 µM (inactive); in the assay on RPMI-8226, 50.6 µM (inactive); in the assay with MDA-MB-231 it was > 100 µM (inactive); in the assay on SNB-75, > 100 µM (inactive). Further, the GI50 is 50.8 µM (inactive) in the assay on MCF7, > 100 µM (inactive) in the assay with CCRF-CEM, > 100 µM (inactive) with SK-MEL-2 and 40.4 µM (inactive) in the assay on MOLT-4.
For the compound `O=[N+]([O-])c1cccc(-c2ccc([C@H]3CC(c4ccc(Cl)cc4)=NN3)o2)c1`, the GI50 with UACC-62 was 16.3 µM (inactive); in the assay with MDA-MB-435, 19.2 µM (inactive); in the assay on SK-OV-3, 28.8 µM (inactive); in the assay with HCT-116, 15.2 µM (inactive); in the assay with EKVX, 70 µM (inactive); in the assay with HCT-15 it was 5.15 µM. For the same compound, the GI50 with UACC-257 is 31.7 µM (inactive); with Hs-578T, 58.9 µM (inactive); with A549 it was > 100 µM (inactive); in the assay on RPMI-8226, 14.3 µM (inactive); with SNB-75, 14.7 µM (inactive); in the assay with RXF 393, 16.8 µM (inactive). The figures for the GI50 in the assay with MCF7, in the assay on CCRF-CEM and in the assay on MOLT-4 were 16.3 µM (inactive), 1.43 µM (inactive) and 0.891 µM (active), respectively.
For the compound `CC(=O)c1cn(-c2ccc(Cl)cc2)c(=O)c2c(N)n[nH]c12`, the GI50 in the assay with UACC-62 was 41.7 µM (inactive); with MDA-MB-435, > 100 µM (inactive); in the assay with SK-OV-3, > 100 µM (inactive); with HCT-116, > 100 µM (inactive); with EKVX it was > 100 µM (inactive); in the assay with HCT-15 it was greater than 100 µM. Also, the GI50 in the assay on LOX IMVI was 43 µM (inactive); in the assay on UACC-257, > 100 µM (inactive); in the assay with Hs-578T it was > 100 µM (inactive); in the assay on RPMI-8226, > 100 µM (inactive); with MDA-MB-231, > 100 µM (inactive); in the assay with SNB-75, > 100 µM (inactive). Further, the GI50 in the assay with RXF 393, with CCRF-CEM, with SK-MEL-2 and with MOLT-4 was > 100 µM (inactive) in each case.
In the case of `O=P(O)(O)c1ccc2c(c1)OCCOCCOCCOCCO2`, the GI50 is > 100 µM (inactive) in the assay on UACC-62; > 100 µM (inactive) with MDA-MB-435; > 100 µM (inactive) in the assay with SK-OV-3; > 100 µM (inactive) in the assay on HCT-116; > 100 µM (inactive) in the assay on EKVX; greater than 100 µM in the assay on HCT-15. In addition, the GI50 in the assay with LOX IMVI, with SF-539, in the assay with UACC-257, with Hs-578T, in the assay with A549 and with RPMI-8226 was > 100 µM (inactive) in each case. The GI50 in the assay on MDA-MB-231, in the assay with SNB-75, with MCF7, with CCRF-CEM and in the assay with MOLT-4 was > 100 µM (inactive) throughout.
Turning to `CC[C@H](C)[C@H]1NC(=O)[C@@H](NC(=O)[C@@H](CC(C)C)N(C)C(=O)C2CCCN2C(=O)[C@H](C)O)[C@@H](C)OC(=O)[C@H](Cc2ccc(OC)cc2)N(C)C(=O)[C@@H]2CCCN2C(=O)[C@H](CCCCNC(=O)OCc2ccccc2)NC(=O)[C@H](C)C(=O)[C@H](C(C)C)OC(=O)C[C@@H]1O` (some centres not stated), the GI50 is 8.2 µM (inactive) in the assay on UACC-62; 5.86 µM (inactive) in the assay with MDA-MB-435; 7.69 µM (inactive) in the assay with SK-OV-3; 3.28 µM (inactive) in the assay with HCT-116; 5.38 µM (inactive) with EKVX; greater than 25 µM with HCT-15. In addition, the GI50 in the assay on LOX IMVI is 7.4 µM (inactive); in the assay with SF-539, 12.8 µM (inactive); with UACC-257 it was 2.49 µM (inactive); in the assay on Hs-578T it was 1.41 µM (inactive); in the assay with A549, 3.9 µM (inactive); in the assay with RPMI-8226, 4.17 µM (inactive). For the same compound, the GI50 in the assay with RXF 393 is > 25 µM (inactive); in the assay on MCF7, 2.77 µM (inactive); in the assay on CCRF-CEM it was 6.46 µM (inactive); with SK-MEL-2, 1.96 µM (inactive); in the assay on MOLT-4, 4.79 µM (inactive).
